Assay [1] concerns recombinant GLUT4 (myc-GLUT4-ECFP) in C2C12 myotube cells. As to the kind of experiment: Measurement of GLUT4 membrane-translocation activity by anti-myc antibody uptake, western blot analysis. Format: cell-based, mouse. The note with it: insulin 100 nM, 60 minutes. As for the experimental part:
The C2C12 myotube cells expressing a recombinant GLUT4, prepared according to Preparation Example 3, were stimulated by insulin with a final concentration of 100 nM for 60 minutes. After 30 minutes from the start of insulin stimulation, an anti-myc-monoclonal antibody with a final concentration of 4 μg/ml was supplemented in a culture medium. After insulin stimulation, the cells were washed 5 times with PBS (−) to remove anti-myc antibodies that were present on the cell membrane, and subsequently, a cell extract was prepared using Laemmli's buffer. The cell extract was used for 12.5% SDS-PAGE, and western blot analysis using an anti-mice-IgG antibody bound to horseradish peroxidase was carried out. Moreover, detection was carried out using a west super femto detection kit (Pierce Biotechnology Inc.).
For orientation: A western blot detects proteins with antibodies after separation by electrophoresis.

Assay [2] has as its system myc-GLUT4-ECFP in C2C12 myotube cells. Briefly: Immunostaining of myc on the membrane, confocal microscope (membrane translocation of GLUT4). It counts as cell-based, mouse. The note with it: insulin 100 nM, 60 minutes; FIG. 13. As for the experimental part: The C2C12 myotube cells (differentiation-type culture myotube cell) expressing a myc-GLUT4-ECFP, prepared according to Preparation Example 3, were stimulated by insulin with a final concentration of 100 nM for 60 minutes. After being washed 3 times with PBS (−), they were fixed by being shaken in PBS (−) supplemented with 2% paraformaldehyde for 15 minutes. After being washed 3 times×10 minutes with PBS (−), they were blocked by being shaken in PBS (−) supplemented with 5% bovine serum for 1 hour. Next, they were shaken for 1 hour using an anti-myc-monoclonal antibody diluted 200-fold with PBS (−) supplemented with 1% bovine serum albumin as a primary antibody. After being washed 5 times×10 minutes with PBS (−), they were shaken for 1 hour using an anti-mice-IgG antibody (The Jackson Laboratory) bound to rhodamine that was diluted 2000-fold with PBS (−) supplemented with 1% bovine serum albumin as a secondary antibody. Subsequently, the glass cover was removed, and they were placed on a glass slide on which Vecta Shield was dropped, and rhodamine and expression of ECFP were observed under a confocal microscope.

The values that follow come from US20080299086A1, “Cultured muscle cells with high metabolic activity and method for production of the cultured muscle cells” (TOHOKU UNIVERSITY, priority 2006, published 2008).

insulin: the “amount of the anti-myc antibody incorporated into the cells” value in assay [1] (FIG. 14A) is listed as “significantly increased”. Moreover, in assay [1] (anti-myc antibody 4 μg/ml, FIG. 14C), the “GLUT4 activity increase by insulin (quantified western blot)” value was “approximately 3 fold”. Moreover, in assay [2], the “membrane translocation of GLUT4 (myc on the membrane)” value is given as “GLUT4 was translocated on the membrane”.
